For one data set, the target named is T1, human P-gp (Homo sapiens, UniProt P08183).
T1 construct: expressed in transfected cells; host or cells: LLC-PK1 (porcine kidney epithelial) cells
In words: P-gp assay in transfected LLC-PK1 cells. The class given is in vitro ADME. The following applies: read-out: P-gp transporter ER human. Here is the method:
(§1) The general permeability of the compound was assessed using the parallel artificial membrane permeability (PAMPA) assay and the permeability-glycoprotein (P-gp) assay was used to specifically test for brain penetration. PAMPA data were generated as previously reported by our group.[44] The P-gp assay, which evaluates the brain penetration of test compounds, was performed as described elsewhere.[45] Briefly, transfected porcine kidney epithelial (LLC-PK1) cells expressing human or mouse P-gp were cultured on 96-well semipermeable filter membrane plates (Millipore, Darmstadt, Germany). Cells formed a polarized monolayer with tight junctions that acted as a barrier between apical and basolateral compartments. P-gp was expressed in the apical-facing membrane of the monolayer (tightness confirmed using Lucifer yellow). […] The effect of P-gp was measured by expressing the efflux ratio of the unidirectional A > B and B > A Papp values. The mean permeability (A > B and B > A Papp) was determined in the absence of P-gp via the addition of the selective P-gp inhibitor, tariquidar.

In another data set the target is T2, mouse P-gp (Mus musculus, UniProt P21447).
T2 construct: expressed in transfected cells; host or cells: LLC-PK1 (porcine kidney epithelial) cells
T2 sequence (P21447 whole entry): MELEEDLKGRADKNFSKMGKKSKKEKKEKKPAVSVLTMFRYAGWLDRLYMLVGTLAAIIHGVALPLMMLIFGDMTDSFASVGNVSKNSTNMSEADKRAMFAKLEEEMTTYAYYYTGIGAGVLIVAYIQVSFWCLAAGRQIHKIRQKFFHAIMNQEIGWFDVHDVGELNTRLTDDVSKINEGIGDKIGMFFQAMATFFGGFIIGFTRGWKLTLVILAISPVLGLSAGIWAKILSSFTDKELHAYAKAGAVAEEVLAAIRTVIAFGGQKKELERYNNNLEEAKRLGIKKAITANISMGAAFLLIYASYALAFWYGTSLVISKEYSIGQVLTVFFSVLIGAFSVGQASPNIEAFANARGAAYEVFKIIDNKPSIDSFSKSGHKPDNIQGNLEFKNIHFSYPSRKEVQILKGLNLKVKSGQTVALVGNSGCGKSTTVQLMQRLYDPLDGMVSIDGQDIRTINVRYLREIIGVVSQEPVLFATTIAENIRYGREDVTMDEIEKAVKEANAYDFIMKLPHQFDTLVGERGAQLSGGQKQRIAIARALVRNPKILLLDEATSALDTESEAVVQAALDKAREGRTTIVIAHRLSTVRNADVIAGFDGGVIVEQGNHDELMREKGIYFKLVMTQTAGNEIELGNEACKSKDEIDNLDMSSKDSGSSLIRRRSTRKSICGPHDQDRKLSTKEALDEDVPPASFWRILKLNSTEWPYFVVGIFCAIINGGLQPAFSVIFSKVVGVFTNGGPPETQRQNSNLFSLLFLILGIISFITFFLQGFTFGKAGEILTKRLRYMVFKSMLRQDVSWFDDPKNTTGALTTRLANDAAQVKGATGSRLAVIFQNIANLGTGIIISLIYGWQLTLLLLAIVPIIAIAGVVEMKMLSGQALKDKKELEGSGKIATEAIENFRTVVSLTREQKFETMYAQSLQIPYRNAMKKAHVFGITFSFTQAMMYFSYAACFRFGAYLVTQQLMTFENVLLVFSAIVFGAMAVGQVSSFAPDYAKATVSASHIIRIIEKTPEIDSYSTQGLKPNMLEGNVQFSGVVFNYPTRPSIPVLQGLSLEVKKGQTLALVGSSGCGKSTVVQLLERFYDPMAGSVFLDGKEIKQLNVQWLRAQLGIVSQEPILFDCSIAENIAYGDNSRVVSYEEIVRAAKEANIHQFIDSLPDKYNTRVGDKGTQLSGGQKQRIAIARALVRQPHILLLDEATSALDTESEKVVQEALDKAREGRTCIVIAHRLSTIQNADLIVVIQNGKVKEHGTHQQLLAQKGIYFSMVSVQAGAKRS
The experiment in a line: P-gp assay in transfected LLC-PK1 cells. Format: in vitro ADME. The following applies: read-out: P-gp transporter ER mouse. On the procedure:
as §1

For another data set, the target named is cynomolgus CB2R (Macaca fascicularis, UniProt G7NVV5). In words: cAMP assay in CHO cells. Format: cell-based. The following applies: mean ± SD; read-out: EC50 cAMP assay, monkey CB2R.
Sequence of cynomolgus CB2R (G7NVV5 1-360): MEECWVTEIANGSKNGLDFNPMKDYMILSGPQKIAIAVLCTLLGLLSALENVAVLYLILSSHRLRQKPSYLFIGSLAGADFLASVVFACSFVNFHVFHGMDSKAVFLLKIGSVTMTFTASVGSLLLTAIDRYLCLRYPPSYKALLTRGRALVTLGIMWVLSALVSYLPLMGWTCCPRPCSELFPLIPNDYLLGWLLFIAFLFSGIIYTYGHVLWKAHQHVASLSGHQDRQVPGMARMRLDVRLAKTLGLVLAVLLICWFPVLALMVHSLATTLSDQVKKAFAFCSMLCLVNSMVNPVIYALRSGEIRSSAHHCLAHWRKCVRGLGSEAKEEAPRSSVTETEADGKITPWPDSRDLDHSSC
Data set [1] is described as follows: Single-dose pharmacokinetics in mice. The class given is in vivo. The following applies: mouse, plasma. On the procedure: To characterize the pharmacokinetic behavior of RNB-61, studies in rodents were conducted at the in vivo facility of F. Hoffmann-La Roche Ltd. (Basel, Switzerland). The plasma-concentration time profile was studied in rodents after single-dose RNB-61 administration by oral gavage (p.o. microsuspension excipients 7.5% gelatin/0.62% NaCl) and intravenous bolus injection (i.v. solution, excipients NMP:NaCl (30:70)). Three groups of male Wistar rats (n = 2 per group) were administered RNB-61 either at 1 mg kg^–1 i.v., 3 mg kg^–1 p.o., or 26 mg kg^–1 p.o. Plasma samples were drawn at 0.083, 0.25, 0.5, 1, 2, 4, 8, and 24 postdose in the i.v. group and at 0.25, 0.5, 0.75, 1.5, 3, 5, 8, and 24 h postdose in the p.o. groups. The samples were analyzed for RNB-61 concentration by LC/MS-MS. For the LC/MS-MS analysis, and the samples were prepared by adding 100 uL to 400 uL ACN with ISTD (100 ng/mL Bosantan in ACN/MeOH 1/1), stirring, and centrifuging (4000 rpm, 65’). 100 uL of the supernatant were pipetted and diluted with 400 μL H2O at pH 3. The analytes were separated on a Restek C18 column (5 μm, 1.0 × 3 mm). The mobile phase consisted of water containing 0.1% HCOOH as solvent A and ACN containing 0.1% HCOOH as solvent B. The gradient curve starting with 5% B was changed to 90% B between 0.4 and 0.6 min and further increased to 95% B between 0.6 and 1.2 min. This was maintained until 1.4 min and then reduced and kept at 5% B between 1.45 and 2.0 min. The mass spectrometer was operated in the positive mode. All LC-MS/MS was done using the Agilent RapidFire Analyzer software (version 4.3). The pharmacokinetic parameters were estimated by noncompartmental analysis in the Certara WinNonlin software (version 5.3). A similar study design was run in mice with three groups receiving 2 mg kg^–1 i.v., 4 mg kg^–1 p.o., or 26 mg kg^–1 p.o., and plasma sampling occurring in a composite profile (n = 2 for each time point) up to 7 or 24 h postdose. Male C57/BL6 mice (n = 5 per group) were used to study the influence of P-gp efflux on brain penetration. Two groups of mice were administered RNB-61 by i.v. bolus injection at 1 mg kg^–1 (2 groups). In order to block P-gp activity, an i.v. bolus of 5 mg kg^–1 tariquidar[46] was injected into one group 30 min prior to RNB-61. Plasma was collected at 0.083, 0.25, 0.5, 2, 4, and 7 h postdose in a composite profile. Brain, CSF, and vitreous body were collected at terminal time points 0.5, 2, 4, and 7 h postdose.

The next data set has as its target COX-2 (Homo sapiens, UniProt P35354). In words: Endocannabinoid target profiling: COX-2. The class given is biochemical.

Structures are written as SMILES.

Sequence of COX-2 (P35354 18-604): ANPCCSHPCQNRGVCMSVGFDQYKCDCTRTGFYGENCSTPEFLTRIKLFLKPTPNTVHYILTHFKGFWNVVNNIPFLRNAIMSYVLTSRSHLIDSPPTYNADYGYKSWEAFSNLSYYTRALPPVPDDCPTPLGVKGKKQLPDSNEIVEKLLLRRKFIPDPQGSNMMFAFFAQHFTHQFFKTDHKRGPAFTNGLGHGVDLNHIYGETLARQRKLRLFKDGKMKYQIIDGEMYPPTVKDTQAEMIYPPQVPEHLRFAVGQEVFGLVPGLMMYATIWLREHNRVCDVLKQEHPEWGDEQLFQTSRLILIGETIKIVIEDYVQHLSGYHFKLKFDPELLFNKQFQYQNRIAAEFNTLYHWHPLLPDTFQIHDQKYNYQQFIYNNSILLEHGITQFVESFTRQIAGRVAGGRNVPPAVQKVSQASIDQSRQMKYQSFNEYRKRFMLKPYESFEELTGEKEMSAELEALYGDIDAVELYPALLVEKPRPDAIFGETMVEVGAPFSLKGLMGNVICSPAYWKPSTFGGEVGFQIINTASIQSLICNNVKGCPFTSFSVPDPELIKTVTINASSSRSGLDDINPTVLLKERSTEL
T1 sequence (P08183 whole entry): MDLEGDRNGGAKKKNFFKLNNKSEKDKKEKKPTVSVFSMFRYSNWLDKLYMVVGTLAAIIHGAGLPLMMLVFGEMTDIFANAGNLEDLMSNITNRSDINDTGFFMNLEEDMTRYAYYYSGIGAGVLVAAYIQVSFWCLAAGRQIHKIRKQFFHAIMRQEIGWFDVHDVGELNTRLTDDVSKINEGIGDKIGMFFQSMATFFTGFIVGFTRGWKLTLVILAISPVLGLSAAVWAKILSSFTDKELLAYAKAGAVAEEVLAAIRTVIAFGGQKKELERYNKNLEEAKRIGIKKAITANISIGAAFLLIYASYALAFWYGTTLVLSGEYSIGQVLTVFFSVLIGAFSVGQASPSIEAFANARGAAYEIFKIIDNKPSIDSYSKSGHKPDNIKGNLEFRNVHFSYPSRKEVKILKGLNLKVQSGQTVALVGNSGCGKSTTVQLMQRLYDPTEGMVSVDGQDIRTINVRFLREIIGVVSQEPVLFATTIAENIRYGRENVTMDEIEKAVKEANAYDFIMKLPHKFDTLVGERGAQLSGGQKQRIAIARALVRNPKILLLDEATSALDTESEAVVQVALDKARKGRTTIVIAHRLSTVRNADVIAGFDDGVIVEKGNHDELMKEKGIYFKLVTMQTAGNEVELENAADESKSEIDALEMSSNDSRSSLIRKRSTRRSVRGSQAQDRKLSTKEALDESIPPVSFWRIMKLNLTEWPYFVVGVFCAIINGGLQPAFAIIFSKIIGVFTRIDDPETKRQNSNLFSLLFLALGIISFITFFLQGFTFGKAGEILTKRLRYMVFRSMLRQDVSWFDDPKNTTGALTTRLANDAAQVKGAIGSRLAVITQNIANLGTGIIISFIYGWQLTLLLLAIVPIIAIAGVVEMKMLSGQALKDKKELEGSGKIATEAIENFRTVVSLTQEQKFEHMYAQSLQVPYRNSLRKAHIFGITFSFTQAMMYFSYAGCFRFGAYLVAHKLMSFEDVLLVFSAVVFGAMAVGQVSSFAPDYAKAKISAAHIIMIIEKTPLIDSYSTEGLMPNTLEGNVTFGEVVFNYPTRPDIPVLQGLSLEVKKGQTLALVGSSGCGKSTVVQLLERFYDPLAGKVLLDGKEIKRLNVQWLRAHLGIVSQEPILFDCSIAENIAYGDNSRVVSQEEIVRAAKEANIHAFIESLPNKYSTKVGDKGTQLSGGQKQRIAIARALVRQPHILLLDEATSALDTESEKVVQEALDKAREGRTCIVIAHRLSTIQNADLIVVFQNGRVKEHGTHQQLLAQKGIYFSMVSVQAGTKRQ

As to `Cn1c(C(C)(C)C)cc(=NC(=O)c2cc(C(F)(F)F)ccc2OCC(C)(C)O)n1CC1CCC1` [RNB-61], the efflux ratio at 3 h at human P-gp amounted to 40.6. Also, the efflux ratio at 3 h at mouse P-gp came to 26.8. In addition, the EC50 on cynomolgus CB2R is 0.7 ± 0.03 nM. Moreover, in data set [1] (iv, 2 mg kg^–1 i.v.), the total exposure AUC(0-inf) is 8630 ng·h/mL, the Cmax is 1170 ng/mL, the time to peak (Tmax) was found to be 0.25 h and the clearance is 3.9 mL/min/kg. This compound gave a half-life in data set [1] (iv, 2 mg kg^–1 i.v.) of 7.7 h. Moreover, the Vd in data set [1] (iv, 2 mg kg^–1 i.v., read-out: Vss) was 2.4 L/kg. Further, in data set [1] (po, 4 mg kg^–1 p.o.), the area under the curve AUC(0-inf) was determined as 9300 ng·h/mL, the highest level (Cmax) was 843 ng/mL, the Tmax is 2 h and the bioavailability is 54%. Also, in data set [1] (po, 4 mg kg^–1 p.o.), the half-life is 6.4 h. For the same compound, in data set [1] (po, 26 mg kg^–1 p.o.), the AUC(0-inf) was found to be 47300 ng·h/mL, the highest concentration (Cmax) was 4370 ng/mL, the Tmax is 2 h and the bioavailability was determined as 42%. This compound gave a half-life in data set [1] (po, 26 mg kg^–1 p.o.) of 4.3 h. For the same compound, on COX-2 (Table S1, read-out: COX-2 (Ki, IC50)), the IC50 is > 10000 nM. Further, the “inhibition of EC oxygenation (COX-2)” value on COX-2 (screening concentration 10 μM) is reported as “did not inhibit”.

The values are drawn from publication PMC11320734 (ACS Pharmacology & Translational Science, 2024).
